The values below are quoted from earlier work in patent publication US20250120913A1, “STABLE QUERCETIN NANOSUSPENSIONS” (Sirona Biosciences Inc., priority 2023, published 2025).

As usually defined, the aqueous solubility is the dissolved amount per volume that the medium holds.

SMILES strings stand for the structures.

The conditions of the data set: depending on the pH level.

Take `O=c1c(O)c(-c2ccc(O)c(O)c2)oc2cc(O)cc(O)c12` [Quercetin]: the aqueous solubility was 1.5 to 12.5 µg/mL.
